Experimental findings from ChEMBL document CHEMBL6120940, “Discovery of N-Aryl-N'-[4-(aryloxy)cyclohexyl]squaramide-Based Inhibitors of LXR/SREBP-1c Signaling Pathway Ameliorating Steatotic Liver Disease: Navigating the Role of SIRT6 Activation” (J Med Chem, 2024) are described below.

The structures appear in SMILES notation. Activity calls are given as the source filed them. The rule behind the calls is not given here.

Data set [1] deals with Hepatocyte. As to the kind of experiment: Inhibition of Scd level in mouse hepatocyte at 10 uM preincubated with compound for 30 mins followed by T0901317 addition and measured after 12 hrs. Format: functional, cell-based. The conditions noted are these: time 12.5 hrs.
Data set [2] deals with HepG2. The experiment in a line: Downregulation of ACACA expression in human HepG2 cells at 5 uM pretreated with compound for 30 mins followed by T0901317 addition and measured after 12 hrs in presence of compound C by immunoblot analysis. The class given is functional, cell-based. The note with it: time 12.5 hrs. (In general: A western blot detects proteins with antibodies after separation by electrophoresis.)

Data set [3] is described as follows: AUC infinity in 16 hrs fasted ICR mouse at 20 mg/kg, po measured upto 8 hrs by LC-MS/MS analysis. The class given is ADME, organism-based. The note with it: in vivo.
For data set [4], the system named is HepG2. The experiment in a line: Downregulation of FASN gene expression in human HepG2 cells in presence of T0901317 by RNA sequencing analysis. The class given is functional, cell-based.
Data set [5] in a line: MRT infinity in 16 hrs fasted ICR mouse at 2 mg/kg, iv measured upto 8 hrs by LC-MS/MS analysis. The class given is ADME, organism-based. The note with it: in vivo.
The next data set has as its system AML12. The experiment in a line: Downregulation of SREBP-1c expression level in mouse AML12 cells at 10 uM pretreated with compound for 30 mins followed by T0901317 addition and measured after 12 hrs by RT-qPCR analysis. The class given is functional, cell-based. The conditions noted are these: time 12.5 hrs. For orientation: Quantitative PCR measures a nucleic acid by following its amplification.

In data set [6] the test system is HepG2. The experiment in a line: Activation of AMPK in human HepG2 cells assessed as increase in ratio of ACACA phosphorylation to total ACACA at 5 uM pretreated with compound for 30 mins followed by T0901317 addition and measured after 12 hrs by immunoblot analysis. The class given is cell-based. The note with it: filed as activator, time 12.5 hrs.
Data set [7] concerns Hepatocyte. As to the kind of experiment: Effect on Acox-2 gene expression in mouse hepatocyte. The class given is functional, cell-based.
In data set [8] the target is T1, Sterol regulatory element-binding protein 1 (Homo sapiens) (UniProt P36956).
T1 sequence (whole entry): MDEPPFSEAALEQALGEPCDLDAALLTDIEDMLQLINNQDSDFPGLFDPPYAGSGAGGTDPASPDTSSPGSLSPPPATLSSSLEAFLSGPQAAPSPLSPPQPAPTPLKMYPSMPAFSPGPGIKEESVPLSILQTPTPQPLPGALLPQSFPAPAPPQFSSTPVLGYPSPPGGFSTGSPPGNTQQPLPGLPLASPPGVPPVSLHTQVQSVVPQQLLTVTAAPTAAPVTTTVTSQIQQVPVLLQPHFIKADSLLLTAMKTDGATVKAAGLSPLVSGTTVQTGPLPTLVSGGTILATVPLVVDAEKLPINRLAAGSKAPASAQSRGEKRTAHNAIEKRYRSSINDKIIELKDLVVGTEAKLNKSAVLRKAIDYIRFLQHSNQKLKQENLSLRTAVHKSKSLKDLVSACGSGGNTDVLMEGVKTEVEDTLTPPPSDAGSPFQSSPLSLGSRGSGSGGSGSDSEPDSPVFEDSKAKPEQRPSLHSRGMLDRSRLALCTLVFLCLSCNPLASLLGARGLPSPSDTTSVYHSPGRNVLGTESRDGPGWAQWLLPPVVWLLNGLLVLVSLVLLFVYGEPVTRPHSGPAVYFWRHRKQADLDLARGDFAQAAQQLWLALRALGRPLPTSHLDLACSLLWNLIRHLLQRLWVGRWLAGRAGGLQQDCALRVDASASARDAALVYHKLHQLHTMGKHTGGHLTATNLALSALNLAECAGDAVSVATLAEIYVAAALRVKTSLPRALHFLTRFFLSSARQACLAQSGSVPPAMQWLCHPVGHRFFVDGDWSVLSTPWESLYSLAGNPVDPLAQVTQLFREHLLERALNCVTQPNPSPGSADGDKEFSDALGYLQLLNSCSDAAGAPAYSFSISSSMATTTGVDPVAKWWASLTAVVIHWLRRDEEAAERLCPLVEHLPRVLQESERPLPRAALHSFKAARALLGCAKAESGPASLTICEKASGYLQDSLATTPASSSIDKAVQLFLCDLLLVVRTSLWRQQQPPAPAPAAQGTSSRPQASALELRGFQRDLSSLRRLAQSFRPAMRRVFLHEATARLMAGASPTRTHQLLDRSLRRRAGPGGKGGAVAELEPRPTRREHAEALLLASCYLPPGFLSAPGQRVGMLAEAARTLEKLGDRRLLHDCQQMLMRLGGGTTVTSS
The experiment in a line: Inhibition of SREBP-1c transcriptional activity in HEK293 cells expressing LXRalpha/RXRalpha assessed as reduction in SRE-luciferase level pretreated with compound for 30 mins followed by T0901317 addition and measured after 12 hrs by Dual-Glo luciferase assay. The class given is cell-based. The note with it: dose 2.5-5 µM, time 12.5 hrs.

The subject of data set [9] is Mus musculus. The experiment in a line: Anti-lipogenic activity against high fat died induced male C57BL/6J mouse obesity model assessed as reduction ALT level in serum at 15 mg/kg, po administered three times per week and measured for 5 weeks. Format: functional, organism-based.
Data set [10] concerns HepG2. As to the kind of experiment: Downregulation of ACACA mRNA level in human HepG2 cells at 10 uM pretreated with compound for 30 mins followed by […] addition and measured after 12 hrs by RT-qPCR analysis. The conditions noted are these: time 12.5 hrs. The class given is functional, cell-based.
Data set [11] is described as follows: AUC last in 16 hrs fasted ICR mouse at 20 mg/kg, po measured upto 8 hrs by LC-MS/MS analysis. Format: ADME, organism-based. The conditions noted are these: in vivo.
Data set [12] has as its target T1, Sterol regulatory element-binding protein 1 (Homo sapiens). As to the kind of experiment: Inhibition of SREBP-1c transcriptional activity in human HepG2 cells expressing LXRalpha/RXRalpha assessed as reduction in SRE-luciferase level at 10 uM pretreated with compound for 30 mins followed by T0901317 addition and measured after 12 hrs by Dual-Glo luciferase assay relative to control. The class given is cell-based. The conditions noted are these: time 12.5 hrs.

For data set [13], the system named is HepG2. As to the kind of experiment: Downregulation of SREBP-1c expression level in human HepG2 cells at 5 to 10 uM pretreated with compound for 30 mins followed by GW3965 addition and measured after 12 hrs by RT-qPCR analysis. The conditions noted are these: dose 5-10 µM, time 12.5 hrs. Format: functional, cell-based.
For data set [14], the system named is Hepatocyte. As to the kind of experiment: Lipid lowering effect on palmitic acid induced lipid accumulation in mouse Hepatocyte at 5 uM incubated for 30 mins by Oil red O staining based analysis. The class given is functional, cell-based.
The subject of data set [15] is Mus musculus. As to the kind of experiment: Anti-lipogenic activity against high fat died induced male C57BL/6J mouse obesity model assessed as downregulation of Ccl2 mRNA level at 15 mg/kg, po administered three times per week and measured after 5 weeks by RT-qPCT analysis. Format: functional, organism-based.
The nature of data set [16]: Terminal half life in 16 hrs fasted ICR mouse at 2 mg/kg, iv measured upto 8 hrs by LC-MS/MS analysis. The class given is ADME, organism-based. The note with it: in vivo, read-out: beta t1/2 (converted).
The subject of data set [17] is HepG2. As to the kind of experiment: Lipid lowering effect on palmitic acid induced lipid accumulation in human HepG2 cells at 5 uM incubated for 30 mins by Oil red O staining based analysis. Format: functional, cell-based.
In another data set the target is CYP3A4 (Homo sapiens, UniProt P08684). The experiment in a line: Inhibition of CYP3A4 in human liver microsomes at 10 uM using midazolam as substrate preincubated for 5 mins followed by NADPH generating system addition and measured after 15 mins relative to control. The class given is ADME, Microsome. The note with it: probe midazolam, time 20 min. (Liver microsomes are a subcellular fraction often used to study metabolism.)

Data set [18] has as its system Mus musculus. As to the kind of experiment: Anti-lipogenic activity against high fat died induced male C57BL/6J mouse obesity model assessed as effect on body weight at 15 mg/kg, po administered three times per week and measured for 5 weeks. The class given is functional, organism-based.
The subject of data set [19] is Mus musculus. As to the kind of experiment: Anti-lipogenic activity against high fat died induced male C57BL/6J mouse obesity model assessed as reduction in liver weight at 15 mg/kg, po administered three times per week and measured for 5 weeks. Format: functional, organism-based.
The nature of data set [20]: Cmax in 16 hrs fasted ICR mouse at 20 mg/kg, po measured upto 8 hrs by LC-MS/MS analysis. Format: ADME, organism-based. The conditions noted are these: in vivo.

Chain of CYP3A4 (P08684 whole entry): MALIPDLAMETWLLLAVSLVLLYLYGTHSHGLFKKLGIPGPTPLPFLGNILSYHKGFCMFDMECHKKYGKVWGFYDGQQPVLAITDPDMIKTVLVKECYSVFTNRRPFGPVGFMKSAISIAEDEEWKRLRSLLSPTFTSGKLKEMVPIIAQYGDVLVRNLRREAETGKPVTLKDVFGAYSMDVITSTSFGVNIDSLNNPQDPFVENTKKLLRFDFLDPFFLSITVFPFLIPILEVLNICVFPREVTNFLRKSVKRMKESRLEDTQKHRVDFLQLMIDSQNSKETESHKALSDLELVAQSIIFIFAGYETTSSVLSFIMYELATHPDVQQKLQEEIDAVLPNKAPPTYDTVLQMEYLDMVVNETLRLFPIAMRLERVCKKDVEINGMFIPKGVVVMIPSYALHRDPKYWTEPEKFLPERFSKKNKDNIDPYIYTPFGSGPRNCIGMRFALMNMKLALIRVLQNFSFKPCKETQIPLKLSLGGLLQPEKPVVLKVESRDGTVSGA

By inhibition is commonly meant the change of the read-out against control, counted positive when it falls. In general, AUC(0-inf) refers to the area under the concentration-time curve extrapolated to infinity. High values mean high exposure, low ones low exposure. As a reminder, the MRT inf is a mean duration of stay, worked out from the concentration-time curve. The AUC(0-t) is the area under the concentration-time curve up to a stated or last time point. Read a low AUC(0-t) as less exposure. What is called Cmax is the highest concentration seen after dosing. As to `COc1ccccc1Nc1c(N[C@H]2CC[C@H](Oc3ccc([N+](=O)[O-])cc3)CC2)c(=O)c1=O`, the inhibition result with Hepatocyte [1] is “Active”. The outcome in the data set on HepG2 [2], in the data set on Hepatocyte [7] and in the data set with Mus musculus [18] was inactive. Besides, the AUC(0-inf) in [3] was found to be 2890 ng·h/mL. Also, the outcome in the data set on HepG2 [4], with AML12, in the data set on HepG2 [6], in the data set on Mus musculus [9], in the data set with HepG2 [10] and in the data set on HepG2 [13] was Active. The result in the data set with Hepatocyte [14], with Mus musculus [15], in the data set with HepG2 [17] and in the data set on Mus musculus [19] was Active. In data set [5], this compound showed an MRT inf of 1.3 h. Besides, the results for the inhibition entry in data set [8] and in data set [12] were “Dose-dependent-effect” and 27.7%, respectively. The AUC(0-t) at 8 h in [11] came to 2820 ng·h/mL. Also, the half-life in data set [16] was 1.4 h. Besides, the inhibition at 0.25 h, 10 µM against CYP3A4 was found to be 91.6%. The same compound had a Cmax in data set [20] of 2300 ng/mL.
